Source: article PMC9019904, “AD Informer Set: Chemical tools to facilitate Alzheimer's disease drug discovery” (Alzheimer's & Dementia : Translational Research & Clinical …, 2022)
Where a SMILES comes first, the peptide text is derived from it. [ ]: non-standard residue; d: D form. The star is where a group is joined. ξ: configuration not given here. ξF = NC(Cc1ccccc1)C(=O)O; Cbz = O=C(OCc1ccccc1)*

Legend:
[1] = tested on: BV2 (mouse microglia) cell line; assay: pHrodo-myelin phagocytosis/cell viability high content imaging assay: viability (cell count, nuclear area, nuclear intensity); settings: 48 hours treatment
Summary of the method: (§1)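 Viability was read as total cell count per well by high-content imaging, with mean average nuclear intensity per cell profiling apoptosis (rise early, fall late). Compounds were given at 10 μM for 48 h, pHrodo-myelin being added for the final 20 h. Values are means of two points as % untreated control.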

[2] = tested on: HMC3 (human microglia) cell line; assay: as above; settings: 48 hours treatment
Summary of the method: as §1

[3] = tested on: BV2 (mouse microglia) cell line; assay: pHrodo-myelin phagocytosis/cell viability high content imaging assay: phagocytosis signal; type: cell-based
Summary of the method: (§2)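 High content imaging, roughly 22 hours post pHrodo-myelin addition, recorded phagocytosis signal alongside viability in microglial lines BV2 (mouse) and HMC3 (human). Apoptosis tracked through intensity rise (early) and fall (later) among three extracted measurements.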

[4] = tested on: HMC3 (human microglia) cell line; assay: as above; type: cell-based
Summary of the method: as §2

[5] = BV2, compound 10 uM, pHrodo-myelin
[6] = HMC3, compound 10 uM, pHrodo-myelin
[7] = BV2 cells, 10 uM compound, 48 hours treatment, pHrodo-myelin final 20 hours
[8] = HMC3 cells, 10 uM compound, 48 hours treatment, pHrodo-myelin final 20 hours

Row | Compound | 1. Cell count (% control) ([1]; BV2, compound 10 uM) | 2. Nuclear Area (% Control) ([1]; BV2, compound 10 uM) | 3. Nuclear DNA Intensity (% control) ([1]; BV2, compound 10 uM) | 1. Cell count (% control) ([2]; HMC3, compound 10 uM) | 2. Nuclear Area (% Control) ([2]; HMC3, compound 10 uM) | 3. Nuclear DNA Intensity (% control) ([2]; HMC3, compound 10 uM) | 4. Phagocytosis (% control) [3, 5] | 4. Phagocytosis (% control) [4, 6] | 1. Cell count (% control) ([1]; BV2 cells, 10 uM compound) | 2. Nuclear Area (% Control) ([1]; BV2 cells, 10 uM compound) | 3. Nuclear DNA Intensity (% control) ([1]; BV2 cells, 10 uM compound) | 1. Cell count (% control) ([2]; HMC3 cells, 10 uM compound) | 2. Nuclear Area (% Control) ([2]; HMC3 cells, 10 uM compound) | 3. Nuclear DNA Intensity (% control) ([2]; HMC3 cells, 10 uM compound) | 4. Phagocytosis (% control) [3, 7] | 4. Phagocytosis (% control) [4, 8]
1 | NCCCC[C@H](N[C@@H](CCc1ccccc1)C(=O)O)C(=O)N1CCC[C@H]1C(=O)O.O.O [UNC10302835A] | 119.8 % control | 103.4 % Control | 99.2 % control | 155.8 % control | 99.6 % Control | 95.8 % control | 121.2 % control | 70.9 % control | – | – | – | – | – | – | – | –
2 | CC(=O)NCC(=O)N1[C@@H]2CC[C@H]1c1ccc(Nc3ncc(C(F)(F)F)c(NC4CCC4)n3)cc12 [UNC10302896A] | – | – | – | – | – | – | – | – | 18.3 % control | 110.7 % Control | 18.8 % control | 69.3 % control | 158.3 % Control | 82.5 % control | 0.15 % control | 16.0 % control
3 | O=C(Nc1c[nH]nc1-c1nc2cc(CN3CCOCC3)ccc2[nH]1)NC1CC1 [UNC10126643A] | – | – | – | – | – | – | – | – | 6.1 % control | 158.4 % Control | 29.9 % control | 85.8 % control | 114.0 % Control | 123.7 % control | 1.0 % control | 64.5 % control
4 | CCCCCCOc1cc2c(cc1N(C)c1ncc(C(=O)O)cn1)C(C)(C)CCC2(C)C [UNC10302707A] | 135.9 % control | 104.8 % Control | 101.8 % control | 137.9 % control | 106.3 % Control | 90.2 % control | 161.8 % control | 53.6 % control | – | – | – | – | – | – | – | –
5 | COc1ccc(/C=C/C(=O)c2ccc(OC)cc2OC)cc1 [UNC10121790A] | – | – | – | – | – | – | – | – | 72.4 % control | 107.4 % Control | 104.1 % control | 66.8 % control | 97.3 % Control | 138.7 % control | 199.6 % control | 97.7 % control
6 | Cc1cc(OCc2nnc(SC3CCCC3)n2-c2cccnc2)ccc1-c1ccc(S(C)(=O)=O)cc1 [UNC10302838A] | 15.0 % control | 98.1 % Control | 45.6 % control | 58.3 % control | 51.1 % Control | 240.9 % control | 0.0 % control | 33.5 % control | – | – | – | – | – | – | – | –
7 | O=C(/C=C/c1ccco1)Nc1ncc(Cc2ccccc2)s1 [UNC10302883A] | – | – | – | – | – | – | – | – | 36.1 % control | 95.3 % Control | 118.7 % control | 163.4 % control | 60.3 % Control | 203.4 % control | 12.7 % control | 17.7 % control
8 | C=Cc1c(C)c2cc3nc(cc4[nH]c(cc5nc(cc1[nH]2)C(C)=C5CCC(=O)O)c(CCC(=O)OC)c4C)[C@@]1(C)C3=CC=C(C(=O)OC)[C@H]1C(=O)OC [UNC10303159A] | 114.7 % control | 121.1 % Control | 113.2 % control | 113.8 % control | 131.2 % Control | 126.0 % control | 174.1 % control | 5.8 % control | – | – | – | – | – | – | – | –
9 | Cc1cc2c(cc1-c1cc(/C=C\C(=O)O)ccc1O)C(C)(C)CCC2(C)C [UNC10302903A] | – | – | – | – | – | – | – | – | 102.7 % control | 107.7 % Control | 96.7 % control | 106.9 % control | 99.9 % Control | 95.8 % control | 143.5 % control | 96.9 % control
10 | CN1CCN(CCCN2c3ccccc3Sc3ccc(C(F)(F)F)cc32)CC1.Cl.Cl [UNC10101287D] | 26.5 % control | 111.5 % Control | 99.8 % control | 79.4 % control | 102.6 % Control | 95.6 % control | 137.1 % control | 45.4 % control | – | – | – | – | – | – | – | –
11 | O=S(=O)(c1ccccc1)N(CC(F)(F)F)c1ccc(C(O)(C(F)(F)F)C(F)(F)F)cc1 [UNC10302875A] | – | – | – | – | – | – | – | – | 109.2 % control | 107.3 % Control | 110.7 % control | 121.7 % control | 100.6 % Control | 97.9 % control | 216.4 % control | 59.3 % control
12 | CCOC(=O)N1CCC(Nc2c(NCCN3CCN(c4cccc(C(F)(F)F)c4)CC3)c(=O)c2=O)CC1 [UNC10302706A] | 117.8 % control | 102.0 % Control | 95.9 % control | 111.8 % control | 102.2 % Control | 96.9 % control | 143.2 % control | 75.0 % control | – | – | – | – | – | – | – | –
13 | CC(C)[C@H](NC(=O)OCc1ccccc1)C(=O)NC(C=O)Cc1ccccc1 (stereo partly drawn) [UNC10302675A] (Cbz-Val-[ξF]-aldehyde) | – | – | – | – | – | – | – | – | 117.2 % control | 102.4 % Control | 114.8 % control | 109.7 % control | 102.5 % Control | 106.2 % control | 144.5 % control | 106.9 % control
14 | COc1cc([C@@H]2c3cc4c(cc3[C@H](O)[C@H]3COC(=O)[C@H]23)OCO4)cc(OC)c1OC [UNC10100984A] | – | – | – | – | – | – | – | – | 10.9 % control | 112.2 % Control | 112.7 % control | 62.5 % control | 67.2 % Control | 227.6 % control | 197.0 % control | 32.6 % control
15 | CC(=O)O[C@@H]1[C@@H](OC(C)=O)[C@@H](O)[C@H](Oc2c(-c3ccc(O)cc3)oc3cc(O)cc(O)c3c2=O)O[C@H]1C [UNC10303187A] | 146.1 % control | 103.4 % Control | 101.7 % control | 122.3 % control | 105.1 % Control | 90.5 % control | 142.1 % control | 67.9 % control | – | – | – | – | – | – | – | –
